Experimental data taken from PubChem BioAssay (NCI).
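Assay format: 96-well plates, 48-hour exposure. GI50: concentration for 50% inhibition of growth. TGI marks complete inhibition of growth.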

How the values were obtained:
Test in all cases: NCI tumour cell line growth inhibition, 48 h
MDA-MB-231 breast = test system: MDA-MB-231 breast
HS 578T breast = test system: HS 578T breast
HOP-62 NSCLC = test system: HOP-62 NSCLC
BT-549 breast = test system: BT-549 breast
OVCAR-5 ovarian = test system: OVCAR-5 ovarian
HT29 colon = test system: HT29 colon
CAKI-1 renal = test system: CAKI-1 renal
DU-145 prostate = test system: DU-145 prostate
NCI-H522 lung = test system: NCI-H522 lung
A498 renal = test system: A498 renal
MCF7 breast = test system: MCF7 breast
MDA-MB-435 = test system: MDA-MB-435
UACC-62 melanoma = test system: UACC-62 melanoma
SF-295 CNS = test system: SF-295 CNS
COLO 205 colon = test system: COLO 205 colon
RXF 393 renal = test system: RXF 393 renal
SW-620 colon = test system: SW-620 colon
HOP-92 NSCLC = test system: HOP-92 NSCLC
SF-268 CNS = test system: SF-268 CNS
EKVX NSCLC = test system: EKVX NSCLC
SK-MEL-2 melanoma = test system: SK-MEL-2 melanoma
NCI-H226 lung = test system: NCI-H226 lung
MALME-3M melanoma = test system: MALME-3M melanoma
OVCAR-8 ovarian = test system: OVCAR-8 ovarian
PC-3 prostate = test system: PC-3 prostate
SN12C renal = test system: SN12C renal
OVCAR-4 ovarian = test system: OVCAR-4 ovarian

In the case of `Nc1ncc(-c2ccc3ncnc(N4CCc5cc(F)c(Cl)cc54)c3c2)cn1`, the GI50 (MDA-MB-231 breast) is reported as 1.02 µM, the TGI (MDA-MB-231 breast) is reported as 14.3 µM and the GI50 (HS 578T breast) is reported as 0.406 µM. It also gave a TGI (HS 578T breast) of 3.06 µM, a GI50 (HOP-62 NSCLC) of 1.45 µM and a TGI (HOP-62 NSCLC) of over 100 µM. It also gave a GI50 (BT-549 breast) of 1.06 µM, a TGI (BT-549 breast) of 7.34 µM and a GI50 (OVCAR-5 ovarian) of 1.16 µM. It also gave a TGI (OVCAR-5 ovarian) of over 100 µM, a GI50 (HT29 colon) of 1.77 µM and a TGI (HT29 colon) of over 100 µM. For the same molecule, the GI50 (CAKI-1 renal) was 0.418 µM, the TGI (CAKI-1 renal) was 6.76 µM and the GI50 (DU-145 prostate) was 0.722 µM. For the same molecule, the TGI (DU-145 prostate) was over 100 µM, the GI50 (NCI-H522 lung) was 2.8 µM and the TGI (NCI-H522 lung) was over 100 µM. For the same molecule, the GI50 (A498 renal) was 0.256 µM, the TGI (A498 renal) was 1.46 µM and the GI50 (MCF7 breast) was 0.278 µM. For the same molecule, the TGI (MCF7 breast) was over 100 µM, the GI50 (MDA-MB-435) was 2.61 µM and the TGI (MDA-MB-435) was over 100 µM. It also gave a GI50 (UACC-62 melanoma) of 0.731 µM, a TGI (UACC-62 melanoma) of 6.87 µM and a GI50 (SF-295 CNS) of 1.82 µM. For the same molecule, the TGI (SF-295 CNS) was over 100 µM, the GI50 (COLO 205 colon) was 1.91 µM and the TGI (COLO 205 colon) was 16 µM. It also gave a GI50 (RXF 393 renal) of 0.35 µM, a TGI (RXF 393 renal) of 2.26 µM and a GI50 (SW-620 colon) of 2.51 µM. For the same molecule, the TGI (SW-620 colon) was over 100 µM, the GI50 (HOP-92 NSCLC) was 0.323 µM and the TGI (HOP-92 NSCLC) was 3.71 µM. It also gave a GI50 (SF-268 CNS) of 1.02 µM, a TGI (SF-268 CNS) of over 100 µM and a GI50 (EKVX NSCLC) of 0.499 µM. It also gave a TGI (EKVX NSCLC) of 10.1 µM, a GI50 (SK-MEL-2 melanoma) of 2.43 µM and a TGI (SK-MEL-2 melanoma) of 8.53 µM. For the same molecule, the GI50 (NCI-H226 lung) was 1.34 µM, the TGI (NCI-H226 lung) was over 100 µM and the GI50 (MALME-3M melanoma) was 1.73 µM. For the same molecule, the TGI (MALME-3M melanoma) was over 100 µM, the GI50 (OVCAR-8 ovarian) was 2.3 µM and the TGI (OVCAR-8 ovarian) was over 100 µM. The GI50 (PC-3 prostate) was 1.03 µM, the TGI (PC-3 prostate) was over 100 µM and the GI50 (SN12C renal) was 1.06 µM. The TGI (SN12C renal) was over 100 µM, the GI50 (OVCAR-4 ovarian) was 2.86 µM and the TGI (OVCAR-4 ovarian) was over 100 µM.
